This is an account of results in patent US20140178479A1, “Concentrated Felbamate Formulations for Parenteral Administration” (PEROSPHERE, INC., priority 2011, published 2014).

Data set [1] is described as follows: supersaturated solution: remaining in solution after heating and cooling. In kind it is physicochemical. Here is the method: Felbamate was added at a concentration of up to 20 weight per volume percent to polyethylene glycol 300 and polyethylene glycol 400. Solutions were heated above 70° C. after which the felbamate dissolved.
Felbamate was added at a concentration of up to 10 weight per volume percent in 65 volume per volume percent polyethylene glycol 300, 20 volume per volume percent polyethylene glycol 400, and 15 volume per volume percent propylene glycol. In a separate experiment, felbamate was added at a concentration of up to 10 weight per volume percent in 65 volume per volume percent polyethylene glycol 300, 20 volume per volume percent polyethylene glycol 400, 10 volume per volume percent propylene glycol, and 5 volume per volume percent polyethylene glycol 600.
Solutions were heated above 70° C. after which the felbamate dissolved.
Fluorofelbamate was added at a concentration of 10 weight per volume percent to polyethylene glycol 300. Solutions were heated above approximately 80° C. after which the fluorofelbamate dissolved.

For another data set, the target named is CYP2C19 (Homo sapiens, UniProt P33261). Conditions: cited from earlier work.
Sequence of CYP2C19 (P33261 whole entry): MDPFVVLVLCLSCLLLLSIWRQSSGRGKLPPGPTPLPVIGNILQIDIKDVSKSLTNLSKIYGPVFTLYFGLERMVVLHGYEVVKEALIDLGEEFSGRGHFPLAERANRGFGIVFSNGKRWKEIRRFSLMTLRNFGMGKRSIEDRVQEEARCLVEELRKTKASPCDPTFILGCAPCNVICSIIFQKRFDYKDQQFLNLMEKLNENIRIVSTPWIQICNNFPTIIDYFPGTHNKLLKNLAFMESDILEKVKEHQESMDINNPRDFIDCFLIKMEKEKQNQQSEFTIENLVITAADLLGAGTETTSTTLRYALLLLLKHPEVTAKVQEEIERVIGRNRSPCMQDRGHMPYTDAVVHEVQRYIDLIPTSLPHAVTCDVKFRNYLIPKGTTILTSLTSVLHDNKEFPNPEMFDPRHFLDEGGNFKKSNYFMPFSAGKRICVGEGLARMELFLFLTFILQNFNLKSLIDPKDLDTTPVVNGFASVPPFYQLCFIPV
For data set [2] the following is noted: cited from earlier work.
Data set [3] in a line: injection of supersaturated solution into 37° C. phosphate buffered saline. It is filed as physicochemical. The protocol: A supersaturated 10 weight per volume percent felbamate solution in PEG 300 was injected into 37° C. phosphate buffered saline. […] Additional felbamate supersaturated solution at the same concentration was added 10 microliters at a time without forming solid particles up to at least 50 microliters.

The nature of data set [4]: SEM imaging of precipitated microparticles. In kind it is physicochemical. The protocol:
Felbamate was dissolved in dimethyl sulfoxide to create a five weight per volume percent solution. The felbamate solution was introduced into one hundred times the volume of a one weight per volume percent polysorbate 20 aqueous solution stirred at 1,500 revolutions per minute using an overhead mixer equipped with an impeller blade. The resultant microparticles of felbamate were imaged using SEM. […] Under the same experimental conditions, Span 80 was substituted for polysorbate 20.
Felbamate was dissolved in glycerin heated above 120° C. to create a 5% weight per volume solution. The felbamate solution was introduced into one hundred times the volume of a one weight per volume percent polysorbate 20 aqueous solution stirred at 1,500 revolutions per minute using an overhead mixer equipped with an impeller blade. The resultant microparticles of felbamate were imaged using SEM.

The conditions of data set [5]: cited from earlier work. The source holds these as a separate data set.

The structures appear in SMILES notation. Some results are limits rather than exact numbers.

Regarding `NC(=O)OCC(COC(N)=O)c1ccccc1` [Felbamate], the “solution state after heating or cooling” value in data set [1] (PEG 300 / PEG 400 sample heated or cooled to 40° C., 4° C., and −20° C. for 30 minutes, then returned to 25° C.) is “remained in solution”. The “concentration of samples that remained in solution” value in data set [1] (polyethylene glycol 300 and polyethylene glycol 400, heated above 70° C., cooled to room temperature approx. 25°) is recorded as at most 12.5 weight per volume percent. Also, the “time remained in solution” value in data set [1] (up to 10 w/v % in 65 v/v % PEG 300, 20 v/v % PEG 400, 10 v/v % propylene glycol, 5 v/v % PEG 600, approx. 25° C.) was “at least 1 day”; in data set [1] (up to 10 w/v % in 65 v/v % PEG 300, 20 v/v % PEG 400, 15 v/v % propylene glycol, approx. 25° C.), “at least 1 day”; in data set [1] (up to approx. 12.5 weight per volume percent in polyethylene glycol 300 and polyethylene glycol 400, room temperature approx. 25°), “at least eight”. In addition, the “effect on CYP2C19” value at CYP2C19 is on record as “inhibitor”. For the same compound, in data set [2], the solubility in water result was “less than one”. Moreover, the “volume of additional supersaturated solution added without forming solid particles” value in data set [3] (10 w/v % in PEG 300, added 10 microliters at a time to 37° C. phosphate buffered saline) is “at least 50 microliters”. In addition, the “solid particles on injection” value in data set [3] (supersaturated 10 w/v % solution in PEG 300 injected into 37° C. phosphate buffered saline) was “No solid particles were observed”. In data set [4] (glycerin / polysorbate 20 microparticles compared with native powder), the “particle size by SEM” value is “hundreds of microns”. The particle form result in data set [4] (same conditions, Span 80 substituted for polysorbate 20) is “formed crystals, which are unsuitable for injection”. In addition, the “share of aplastic anemia cases that are fatal” value in data set [5] (chronic oral dosing) is recorded as 30%. The “aplastic anemia after a single administration” value in data set [5] (single administration) is listed as “has not been shown to develop”.
In the case of `NC(=O)OCC(F)(COC(N)=O)c1ccccc1` [Fluorofelbamate], the “time remained in solution” value in data set [1] (10 w/v % in polyethylene glycol 300, heated above approx. 80° C., cooled to approx. 25°) is on record as “at least 1 month”. For the same compound, the solubility in water entry in data set [2] is on record as “less than one”.
